Results reported in ChEMBL document CHEMBL4028802, “DILIrank: the largest reference drug list ranked by the risk for developing drug-induced liver injury in humans” (Drug Discov Today, 2016).
Starred links: 1 amine or outer side, 2 acyl side, 3 side chain; linkers in the order of their positions; H or OH if unused. Positions of bridges follow the written chain, without caps; N, C: chain ends. Non-standard residues stand in square brackets, D forms with d. Residues, ends and D or L forms follow the SMILES beside them. *: point of attachment. hTyr(3S-OH,4S-OH,3'-OSO3H) = N[C@H](C(=O)O)[C@H](O)[C@@H](O)c1ccc(O)c(OS(=O)(=O)O)c1; Orn(4R-OH,5R-OH) = O=C([C@H](C[C@@H](O)[C@@H](O)N[*:3])N[*:1])[*:2]; Pro(3S-OH,4S-Me) = C[C@H]1CN[C@H](C(=O)O)[C@H]1O; X1 = CCCCCOc1ccc(-c2cc(-c3ccc(C(=O)*)cc3)no2)cc1; Gln(3R-OH) = NC(=O)C[C@@H](O)[C@H](N)C(=O)O; Hyp = O=C(O)[C@@H]1C[C@@H](O)CN1; hArg = N=C(N)NCCCC[C@H](N)C(=O)O; pGlu = O=C1CC[C@@H](C(=O)O)N1; Mpa = O=C(O)CCS

Key:
[1] = organism: Homo sapiens; test: Liver toxicity in human assessed as induction of drug-induced liver injury by measuring verified drug-induced liver injury concern status
[2] = organism: Homo sapiens; test: Liver toxicity in human assessed as induction of drug-induced liver injury by measuring severity class index
Wherever DILI severity class is given: key of the grades not given here.

Molecule: NC(=O)N1c2ccccc2CC(=O)c2ccccc21 [OXCARBAZEPINE]
- DILI_Concern [1]: Less-Dili-Concern
- DILI_severity_class [2]: 3

Molecule: CN(C)C(=O)C(CCN1CCC(O)(c2ccc(Cl)cc2)CC1)(c1ccccc1)c1ccccc1 [LOPERAMIDE]
- DILI_Concern [1]: No-Dili-Concern
- DILI_severity_class [2]: 0

Molecule: CC(=O)Oc1cc2c(s1)CCN(C(C(=O)C1CC1)c1ccccc1F)C2.Cl (centres undefined) [PRASUGREL HYDROCHLORIDE]
- DILI_Concern [1]: Less-Dili-Concern
- DILI_severity_class [2]: 0

Molecule: CCOC(Nc1ccc(C(=O)O)cc1)C(=O)c1ccc(-c2ccccc2)cc1 (centres undefined) [XENAZOIC ACID]
- DILI_Concern [1]: Most-Dili-Concern
- DILI_severity_class [2]: 8

Molecule: Cc1nc2n(c(=O)c1CCN1CCC(c3noc4cc(F)ccc34)CC1)CCCC2 [RISPERIDONE]
- DILI_Concern [1]: Less-Dili-Concern
- DILI_severity_class [2]: 3

Molecule: CC(C)(C)NC(=O)[C@H]1CC[C@H]2[C@@H]3CC[C@H]4NC(=O)C=C[C@]4(C)[C@H]3CC[C@]12C [FINASTERIDE]
- DILI_Concern [1]: Less-Dili-Concern
- DILI_severity_class [2]: 0

Molecule: CN[C@@H](C)Cc1ccccc1 [METHAMPHETAMINE]
- DILI_Concern [1]: No-Dili-Concern
- DILI_severity_class [2]: 0

Molecule: COc1cc2c(c(OC)c1OC)-c1ccc(OC)c(=O)cc1[C@@H](NC(C)=O)CC2 [COLCHICINE]
- DILI_Concern [1]: Ambiguous-Dili-Concern
- DILI_severity_class [2]: 6

Molecule: NC(N)=Nc1nc(CSCCN/C=N/S(=O)(=O)c2ccc(Br)cc2)cs1 [EBROTIDINE]
- DILI_Concern [1]: Most-Dili-Concern
- DILI_severity_class [2]: 8

Molecule: Cc1nc(C)c2c(n1)N(Cc1ccc(-c3ccccc3-c3nnn[nH]3)cc1)C(=O)CC2 [TASOSARTAN]
- DILI_Concern [1]: Most-Dili-Concern
- DILI_severity_class [2]: 8

Molecule: CCCCc1ncc(/C=C(\Cc2cccs2)C(=O)O)n1Cc1ccc(C(=O)O)cc1 [EPROSARTAN]
- DILI_Concern [1]: Ambiguous-Dili-Concern
- DILI_severity_class [2]: 3

Molecule: CC(=O)Oc1ccccc1C(=O)O [ASPIRIN]
- DILI_Concern [1]: Less-Dili-Concern
- DILI_severity_class [2]: 0

Molecule: O=C(O)CCc1nc(-c2ccccc2)c(-c2ccccc2)o1 [OXAPROZIN]
- DILI_Concern [1]: Less-Dili-Concern
- DILI_severity_class [2]: 3

Molecule: C=CCC1(C(C)C#CCC)C(=O)N=C(O)N(C)C1=O (centres undefined) [METHOHEXITAL]
- DILI_Concern [1]: Ambiguous-Dili-Concern
- DILI_severity_class [2]: 3

Molecule: C[N+](C)(C)C[C@H](O)CC(=O)[O-] [LEVOCARNITINE]
- DILI_Concern [1]: No-Dili-Concern
- DILI_severity_class [2]: 0

Molecule: CN1CC[C@]23CCCC[C@H]2[C@H]1Cc1ccc(O)cc13 [LEVORPHANOL]
- DILI_Concern [1]: No-Dili-Concern
- DILI_severity_class [2]: 0

Molecule: CCCCCCCC/C=C\CCCCCCCC(=O)O.NCCO [ETHANOLAMINE OLEATE]
- DILI_Concern [1]: No-Dili-Concern
- DILI_severity_class [2]: 0

Molecule: NC(=O)NS(=O)(=O)c1ccc(N)cc1 [SULFACARBAMIDE]
- DILI_Concern [1]: Most-Dili-Concern
- DILI_severity_class [2]: 8

Molecule: CC(C)Nc1cccnc1N1CCN(C(=O)c2cc3cc(NS(C)(=O)=O)ccc3[nH]2)CC1 [DELAVIRDINE]
- DILI_Concern [1]: Ambiguous-Dili-Concern
- DILI_severity_class [2]: 5

Molecule: CCC1(c2ccccc2)NC(=O)N(C)C1=O (centres undefined) [MEPHENYTOIN]
- DILI_Concern [1]: Ambiguous-Dili-Concern
- DILI_severity_class [2]: 5

Molecule: C[C@]12CC[C@@H]3c4ccc(OC(=O)N(CCCl)CCCl)cc4CC[C@H]3[C@@H]1CC[C@@H]2O [ESTRAMUSTINE]
- DILI_Concern [1]: Most-Dili-Concern
- DILI_severity_class [2]: 4

Molecule: O=C(O)Cc1csc(-c2ccc(Cl)cc2)n1 [FENCLOZIC ACID]
- DILI_Concern [1]: Most-Dili-Concern
- DILI_severity_class [2]: 8

Molecule: Clc1ccc2c(c1)C(c1ccccc1)=NCc1nncn1-2 [ESTAZOLAM]
- DILI_Concern [1]: No-Dili-Concern
- DILI_severity_class [2]: 0

Molecule: COc1cc2c(cc1OC)C1CC(=O)C(CC(C)C)CN1CC2 (centres undefined) [TETRABENAZINE]
- DILI_Concern [1]: Ambiguous-Dili-Concern
- DILI_severity_class [2]: 3

Molecule: CN(C)CCC(c1ccc(Cl)cc1)c1ccccn1 (centres undefined) [CHLORPHENIRAMINE]
- DILI_Concern [1]: No-Dili-Concern
- DILI_severity_class [2]: 0

Molecule: CUPRIC CHLORIDE
- DILI_Concern [1]: No-Dili-Concern
- DILI_severity_class [2]: 0

Molecule: CCCCNc1cc(C(=O)O)cc(S(N)(=O)=O)c1Oc1ccccc1 [BUMETANIDE]
- DILI_Concern [1]: Ambiguous-Dili-Concern
- DILI_severity_class [2]: 3

Molecule: CCCC(=O)OCOC(=O)C1=C(C)NC(C)=C(C(=O)OC)C1c1cccc(Cl)c1Cl (centres undefined) [CLEVIDIPINE]
- DILI_Concern [1]: No-Dili-Concern
- DILI_severity_class [2]: 0

Molecule: CO/N=C(\C(=O)N[C@@H]1C(=O)N2C(C(=O)O)=CCS[C@H]12)c1csc(N)n1 [CEFTIZOXIME]
- DILI_Concern [1]: Ambiguous-Dili-Concern
- DILI_severity_class [2]: 4

Molecule: CC1OC2(CS1)CN1CCC2CC1 (centres undefined) [CEVIMELINE]
- DILI_Concern [1]: Ambiguous-Dili-Concern
- DILI_severity_class [2]: 3

Molecule: OCCOCCN1CCN(C(c2ccccc2)c2ccc(Cl)cc2)CC1 (centres undefined) [HYDROXYZINE]
- DILI_Concern [1]: No-Dili-Concern
- DILI_severity_class [2]: 0

Molecule: CC1(C)S[C@@H]2[C@H](NC(=O)COc3ccccc3)C(=O)N2[C@H]1C(=O)O [PENICILLIN V]
- DILI_Concern [1]: No-Dili-Concern
- DILI_severity_class [2]: 0

Molecule: Cn1c(=O)c2c(ncn2CC(O)CO)n(C)c1=O (centres undefined) [DYPHYLLINE]
- DILI_Concern [1]: No-Dili-Concern
- DILI_severity_class [2]: 0

Molecule: C=C1CC[C@@]2(O)[C@H]3Cc4ccc(O)c5c4[C@@]2(CCN3CC2CC2)[C@H]1O5.Cl [NALMEFENE HYDROCHLORIDE]
- DILI_Concern [1]: Ambiguous-Dili-Concern
- DILI_severity_class [2]: 3

Molecule: CN(C)CCc1c[nH]c2ccc(CS(=O)(=O)N3CCCC3)cc12 [ALMOTRIPTAN]
- DILI_Concern [1]: No-Dili-Concern
- DILI_severity_class [2]: 0

Molecule: COc1ccc2[nH]c([S+]([O-])Cc3ncc(C)c(OC)c3C)nc2c1 (centres undefined) [OMEPRAZOLE]
- DILI_Concern [1]: Less-Dili-Concern
- DILI_severity_class [2]: 4

Molecule: NCCCNCCSP(=O)(O)O [AMIFOSTINE]
- DILI_Concern [1]: No-Dili-Concern
- DILI_severity_class [2]: 0

Molecule: O=C1CN(/N=C/c2ccc([N+](=O)[O-])o2)C(=O)N1 [NITROFURANTOIN]
- DILI_Concern [1]: Most-Dili-Concern
- DILI_severity_class [2]: 8

Molecule: CN(C)CCCC1c2ccccc2Nc2ccc(Cl)cc21 (centres undefined) [CLOMACRAN]
- DILI_Concern [1]: Most-Dili-Concern
- DILI_severity_class [2]: 8

Molecule: CN1CCN(C2=Nc3ccccc3Oc3ccc(Cl)cc32)CC1 [LOXAPINE]
- DILI_Concern [1]: Ambiguous-Dili-Concern
- DILI_severity_class [2]: 5

Molecule: C=CC[C@@H]1/C=C(\C)C[C@H](C)C[C@H](OC)[C@H]2O[C@@](O)(C(=O)C(=O)N3CCCC[C@H]3C(=O)O[C@H](/C(C)=C/[C@@H]3CC[C@@H](O)[C@H](OC)C3)[C@H](C)[C@@H](O)CC1=O)[C@H](C)C[C@@H]2OC [TACROLIMUS ANHYDROUS]
- DILI_Concern [1]: Less-Dili-Concern
- DILI_severity_class [2]: 5

Molecule: Cn1c(=O)c2[nH]cnc2n(C)c1=O.Cn1c(=O)c2[nH]cnc2n(C)c1=O.NCCN [AMINOPHYLLINE]
- DILI_Concern [1]: No-Dili-Concern
- DILI_severity_class [2]: 0

Molecule: CCNC(=O)[C@@H]1CCCN1C(=O)[C@H](CCCNC(=N)N)NC(=O)[C@H](CC(C)C)NC(=O)[C@H](CC(C)C)NC(=O)[C@H](Cc1ccc(O)cc1)NC(=O)[C@H](CO)NC(=O)[C@H](Cc1c[nH]c2ccccc12)NC(=O)[C@H](Cc1c[nH]cn1)NC(=O)[C@@H]1CCC(=O)N1 ([pGlu]HWSYLLRP-NHEt)
- DILI_Concern [1]: Less-Dili-Concern
- DILI_severity_class [2]: 3

Molecule: CNCC[C@@H](Oc1ccccc1C)c1ccccc1 [ATOMOXETINE]
- DILI_Concern [1]: Most-Dili-Concern
- DILI_severity_class [2]: 8

Molecule: N=C(N)NCCCC[C@@H]1NC(=O)CCSSC[C@@H](C(N)=O)NC(=O)[C@@H]2CCCN2C(=O)[C@H](Cc2c[nH]c3ccccc23)NC(=O)[C@H](CC(=O)O)NC(=O)CNC1=O [EPTIFIBATIDE] ([Mpa][hArg]GDWPC-NH2; disulfide 1-7)
- DILI_Concern [1]: No-Dili-Concern
- DILI_severity_class [2]: 0

Molecule: O=C1CC2(CCCC2)CC(=O)N1CCCCN1CCN(c2ncccn2)CC1 [BUSPIRONE]
- DILI_Concern [1]: Ambiguous-Dili-Concern
- DILI_severity_class [2]: 3

Molecule: CN1C(=O)C(O)N=C(c2ccccc2)c2cc(Cl)ccc21 (centres undefined) [TEMAZEPAM]
- DILI_Concern [1]: Ambiguous-Dili-Concern
- DILI_severity_class [2]: 3

Molecule: CCCCCCCCCCC[C@@H](C[C@@H]1OC(=O)[C@H]1CCCCCC)OC(=O)[C@H](CC(C)C)NC=O [ORLISTAT]
- DILI_Concern [1]: Most-Dili-Concern
- DILI_severity_class [2]: 8

Molecule: N=C(N)c1ccc(OCCCCCOc2ccc(C(=N)N)cc2)cc1 [PENTAMIDINE]
- DILI_Concern [1]: Less-Dili-Concern
- DILI_severity_class [2]: 3

Molecule: CN[C@@H](C)[C@H](O)c1ccccc1 [EPHEDRINE]
- DILI_Concern [1]: No-Dili-Concern
- DILI_severity_class [2]: 0

Molecule: O=C(O)[C@@H](S)[C@@H](S)C(=O)O
- DILI_Concern [1]: Less-Dili-Concern
- DILI_severity_class [2]: 2

Molecule: O=C(O)c1ccccc1-c1c2ccc(=O)cc-2oc2cc(O)ccc12
- DILI_Concern [1]: No-Dili-Concern
- DILI_severity_class [2]: 0

Molecule: C[C@H]1CN(C[C@H](Cc2ccccc2)C(=O)NCC(=O)O)CC[C@@]1(C)c1cccc(O)c1 [ALVIMOPAN]
- DILI_Concern [1]: No-Dili-Concern
- DILI_severity_class [2]: 0

Molecule: CC(=O)OCC(=O)[C@@]1(O)CC[C@H]2[C@@H]3CCC4=CC(=O)CC[C@]4(C)[C@H]3C(=O)C[C@@]21C [CORTISONE ACETATE]
- DILI_Concern [1]: No-Dili-Concern
- DILI_severity_class [2]: 0

Molecule: COC(=O)[C@H]1[C@H]2C[C@@H]3c4[nH]c5cc(OC)ccc5c4CCN3C[C@H]2C[C@@H](OC(=O)c2cc(OC)c(OC)c(OC)c2)[C@@H]1OC [RESERPINE]
- DILI_Concern [1]: No-Dili-Concern
- DILI_severity_class [2]: 0

Molecule: NC(=O)OCC(COC(N)=O)c1ccccc1 [FELBAMATE]
- DILI_Concern [1]: Most-Dili-Concern
- DILI_severity_class [2]: 7

Molecule: CCCCCOc1ccc(-c2cc(-c3ccc(C(=O)N[C@H]4C[C@@H](O)[C@@H](O)NC(=O)[C@@H]5[C@@H](O)[C@@H](C)CN5C(=O)[C@H]([C@H](O)CC(N)=O)NC(=O)[C@H]([C@H](O)[C@@H](O)c5ccc(O)c(OS(=O)(=O)O)c5)NC(=O)[C@@H]5C[C@@H](O)CN5C(=O)[C@H]([C@@H](C)O)NC4=O)cc3)no2)cc1 [MICAFUNGIN] (X1-[Orn(4R-OH,5R-OH)]T[Hyp][hTyr(3S-OH,4S-OH,3'-OSO3H)][Gln(3R-OH)][Pro(3S-OH,4S-Me)]; lactam 1-C)
- DILI_Concern [1]: Most-Dili-Concern
- DILI_severity_class [2]: 7
